According to ChEMBL document CHEMBL1147428, “A new class of potent non-imidazole H(3) antagonists: 2-aminoethylbenzofurans” (Bioorg Med Chem Lett, 2004):

Columns and labels:
Histamine H3 receptor [1] = target: Histamine H3 receptor (Homo sapiens, UniProt Q9Y5N1); assay: Binding potency was determined by displacement of [3H]N-alpha-methyl histamine from cloned human histamine H3 receptor expressed in C6 cells; type: cell-based
Histamine H3 receptor [2] = target: T1, Histamine H3 receptor (Rattus norvegicus, UniProt Q9QYN8); assay: Binding potency was determined by displacement of [3H]N-alpha-methyl histamine from histamine H3 receptor of rat cortical membranes; type: cell membranes, Membrane
Histamine H3 receptor [3] = target: T1, Histamine H3 receptor; assay: Binding potency by displacement of [3H]N-alpha-methyl histamine from histamine H3 receptor of rat cortical membranes; type: cell membranes, Membrane
Histamine H3 receptor [4] = target: T1, Histamine H3 receptor; assay: pBinding potency by displacement of [3H]N-alpha-methyl histamine from histamine H3 receptor of rat cortical membranes; type: cell membranes, Membrane

Histamine H3 receptor (Homo sapiens, UniProt Q9Y5N1), sequence (Q9Y5N1 whole entry): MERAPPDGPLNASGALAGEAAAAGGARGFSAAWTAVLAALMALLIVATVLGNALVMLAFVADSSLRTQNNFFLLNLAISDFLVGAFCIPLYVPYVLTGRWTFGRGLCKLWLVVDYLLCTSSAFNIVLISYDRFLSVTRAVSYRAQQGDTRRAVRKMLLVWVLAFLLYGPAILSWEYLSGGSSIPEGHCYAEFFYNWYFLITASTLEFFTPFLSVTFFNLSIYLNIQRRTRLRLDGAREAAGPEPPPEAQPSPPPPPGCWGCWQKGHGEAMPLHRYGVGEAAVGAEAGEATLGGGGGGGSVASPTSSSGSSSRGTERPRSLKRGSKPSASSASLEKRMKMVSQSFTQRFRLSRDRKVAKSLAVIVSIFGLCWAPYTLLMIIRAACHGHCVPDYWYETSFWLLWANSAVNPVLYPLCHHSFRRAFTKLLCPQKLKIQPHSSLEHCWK
T1 sequence (Q9QYN8 whole entry): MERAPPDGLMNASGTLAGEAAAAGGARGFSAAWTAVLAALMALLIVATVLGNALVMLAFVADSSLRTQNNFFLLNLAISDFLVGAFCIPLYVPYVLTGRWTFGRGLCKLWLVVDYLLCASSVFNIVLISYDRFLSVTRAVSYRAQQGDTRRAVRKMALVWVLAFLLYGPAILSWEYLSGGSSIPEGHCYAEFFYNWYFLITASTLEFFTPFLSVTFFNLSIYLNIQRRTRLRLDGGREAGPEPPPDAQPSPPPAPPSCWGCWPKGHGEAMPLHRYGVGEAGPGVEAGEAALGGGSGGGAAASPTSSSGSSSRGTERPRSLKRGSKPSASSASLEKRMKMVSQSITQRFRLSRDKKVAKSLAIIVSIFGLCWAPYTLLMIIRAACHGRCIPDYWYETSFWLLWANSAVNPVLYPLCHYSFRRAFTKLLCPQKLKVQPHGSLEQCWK

Row | Ki (Histamine H3 receptor [1]) [nM] | Ki (Histamine H3 receptor [2]) [nM] | Ki (Histamine H3 receptor [3]) [nM] | Ki (Histamine H3 receptor [4]) [nM] | Compound
1 | 17 |  |  |  | CC1CCN(CCc2cc3cc(-c4ccc(C(=O)N5CCOCC5)cc4)ccc3o2)CC1
2 | 15 | 16 |  |  | CC1CCN(CCc2cc3cc(-c4ccc(C#N)cc4)ccc3o2)CC1
3 | 49 | 140 |  |  | CN(C)[C@H]1CCN(CCc2cc3cc(-c4ccc(C#N)cc4)ccc3o2)C1
4 | 18 |  |  |  | N#Cc1ccc(-c2ccc3oc(CCN4CCC[C@@H]4CO)cc3c2)cc1
5 | 36 | 110 |  |  | O=C(c1ccc(-c2ccc3oc(CCN4CCC[C@@H]4CO)cc3c2)nc1)N1CCOCC1
6 | 87 | 151 |  |  | CC1CCN(CCc2cc3cc(-c4ccc(C(=O)N5CCOCC5)cn4)ccc3o2)CC1
7 | 1.2 | 6.6 |  |  | C[C@@H]1CCC[C@H](C)N1CCc1cc2cc(-c3ccc(C(=O)N4CCOCC4)cc3)ccc2o1
8 | 2.2 |  |  |  | C[C@@H]1CC[C@@H](C)N1CCc1cc2cc(-c3ccc(C(=O)N4CCOCC4)cc3)ccc2o1
9 | 12 |  |  |  | O=C(c1ccc(-c2ccc3oc(CCN4CCC(O)C4)cc3c2)nc1)N1CCOCC1 (stereo unspecified)
10 | 2.2 |  |  |  | N#Cc1ccc(-c2ccc3oc(CCN4CCC[C@H]4CO)cc3c2)cc1
11 | 5.9 | 17 |  |  | O=C(c1ccc(-c2ccc3oc(CCN4CC=CCC4)cc3c2)cc1)N1CCOCC1
12 | 3 | 14 |  |  | CC1CCCCN1CCc1cc2cc(-c3ccc(C(=O)N4CCOCC4)cc3)ccc2o1 (stereo unspecified)
13 | 10 | 50 |  |  | N#Cc1ccc(-c2ccc3oc(CCN4CC=CCC4)cc3c2)cc1
14 | 45 | 160 |  |  | O=C(c1ccc(-c2ccc3oc(CCN4CCOCC4)cc3c2)cc1)N1CCOCC1
15 | 5.8 |  |  |  | CC1CCCCN1CCc1cc2cc(-c3ccc(C#N)cc3)ccc2o1 (stereo unspecified)
16 | 2.4 | 22 |  |  | C[C@@H]1CCC[C@H](C)N1CCc1cc2cc(-c3ccc(C#N)cc3)ccc2o1
17 | 6.2 | 35 |  |  | O=C(c1ccc(-c2ccc3oc(CCN4CC[C@@H](O)C4)cc3c2)cc1)N1CCOCC1
18 | 3.5 |  |  |  | O=C(c1ccc(-c2ccc3oc(CCN4CCCCCC4)cc3c2)cc1)N1CCOCC1
19 | 0.7 | 1.95 |  | 2 | C[C@@H]1CCCN1CCc1cc2cc(-c3ccc(C(=O)N4CCOCC4)cc3)ccc2o1

Further lines, the compound ahead of its results:

Row | Compound | Ki (Histamine H3 receptor [1]) [nM] | Ki (Histamine H3 receptor [2]) [nM] | Ki (Histamine H3 receptor [3]) [nM] | Ki (Histamine H3 receptor [4]) [nM]
20 | N#Cc1ccc(-c2ccc3oc(CCN4CCC[C@@H]4CC(=O)O)cc3c2)cc1 | 320 | 1600 |  | 
21 | C[C@@H]1CCCN1CCc1cc2cc(-c3ccc(C(=O)N4CCOCC4)cn3)ccc2o1 | 0.55 | 1.6 |  | 
22 | C[C@@H]1CCC[C@H](C)N1CCc1cc2cc(-c3ccc(C(=O)N4CCOCC4)cn3)ccc2o1 | 5.6 | 44.7 | 45 | 
23 | O=C(c1ccc(-c2ccc3oc(CCN4CCCCC4)cc3c2)cc1)N1CCOCC1 | 2.3 | 6.2 |  | 
24 | CN(C)[C@@H]1CCN(CCc2cc3cc(-c4ccc(C#N)cc4)ccc3o2)C1 | 16 | 63 |  | 
25 | O=C(c1ccc(-c2ccc3oc(CCN4CCCCCC4)cc3c2)nc1)N1CCOCC1 | 16 | 33 |  | 
26 | O=C(c1ccc(-c2ccc3oc(CCN4CCCCC4)cc3c2)nc1)N1CCOCC1 | 12 | 49 |  | 
27 | N#Cc1ccc(-c2ccc3oc(CCN4CCC(O)C4)cc3c2)cc1 (stereo unspecified) | 8.8 | 95 |  | 
28 | C[C@@H]1CC[C@@H](C)N1CCc1cc2cc(-c3ccc(C#N)cc3)ccc2o1 | 5.1 | 42 |  | 
29 | N#Cc1ccc(-c2ccc3oc(CCN4CCCCC4)cc3c2)cc1 | 8.8 |  |  | 
30 | N#Cc1ccc(-c2ccc3oc(CCn4ccnc4)cc3c2)cc1 | 600 |  |  | 
31 | O=C(c1ccc(-c2ccc3oc(CCN4CCC[C@H]4CO)cc3c2)cc1)N1CCOCC1 | 1.9 | 6.9 |  | 
32 | N#Cc1ccc(-c2ccc3oc(CCN4CCCCCC4)cc3c2)cc1 | 7.8 |  |  | 
33 | C[C@@H]1CC[C@@H](C)N1CCc1cc2cc(-c3ccc(C(=O)N4CCOCC4)cn3)ccc2o1 | 5.9 | 26 |  | 
34 | O=C(c1ccc(-c2ccc3oc(CCN4CCCC4)cc3c2)nc1)N1CCOCC1 | 3.9 | 29 |  | 
35 | O=C(c1ccc(-c2ccc3oc(CCN4CCOCC4)cc3c2)nc1)N1CCOCC1 |  | 260 |  | 
